Measured values reported in US20140107100A1, “Benzoxazepines as Inhibitors of PI3K/mTOR and Methods of Their Use and Manufacture” (EXELIXIS, INC., priority 2010, published 2014).

Target: mTOR/GbL/Raptor (mTORC1) (Homo sapiens, UniProt P42345)
Assay: mTOR/GbL/Raptor (mTORC1) ELISA assay, phosphorylation of 4E-BP1
Assay type: biochemical
Settings: 0.2 nM mTORC1, 40 uM ATP, 50 nM NHis-tagged 4E-BP1, 120 minutes; read-out: IC50 in this assay (mTORC1 ELISA)
Procedure, shortened: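 Phospho-4E-BP1 was quantified by luminescent ELISA (anti-phospho-4E-BP1 IgG, HRP-tagged secondary) after capture of the His-tagged substrate on Ni-chelate plates.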

Compound: Cc1cc(-c2cnc(Cl)c(NS(=O)(=O)C(F)(F)F)c2)cc2c1OCCN(c1nc(N)nc(C)c1C(C)C)C2 [Compound 52, N-(5-{4-[2-amino-6-methyl-5-(1-methylethyl)pyrimidin-4-yl]-9-methyl-2,3,4,5-tetrahydro-1,4-benzoxazepin-7-yl}-2-chloropyridin-3-yl)-1,1,1-trifluoromethanesulfonamide]
- IC50: ≤ 100 nM

Compound: COCCc1c(C)nc(N)nc1N1CCOc2c(C)cc(-c3cnc4sc(N)nc4c3)cc2C1 [Compound 16, 6-(4-{2-amino-6-methyl-5-[2-(methyloxy)ethyl]pyrimidin-4-yl}-9-methyl-2,3,4,5-tetrahydro-1,4-benzoxazepin-7-yl)[1,3]thiazolo[5,4-b]pyridin-2-amine]
- IC50: ≤ 100 nM

Compound: Cc1cc(-c2cnc3sc(N)nc3c2)cc2c1OCCN(c1nc(N)ncc1C(F)(F)F)C2 [Compound 12, 6-{4-[2-amino-5-(trifluoromethyl)pyrimidin-4-yl]-9-methyl-2,3,4,5-tetrahydro-1,4-benzoxazepin-7-yl}[1,3]thiazolo[5,4-b]pyridin-2-amine]
- IC50: ≤ 100 nM

Compound: COc1cncc(-c2cc(C)c3c(c2)CN(c2nc(N)nc(C)c2C(C)C)CCO3)c1 [Compound 79, 4-methyl-5-(1-methylethyl)-6-{9-methyl-7-[5-(methyloxy)pyridin-3-yl]-2,3-dihydro-1,4-benzoxazepin-4(5H)-yl}pyrimidin-2-amine]
- IC50: 100 to 500 nM

Compound: CC(=O)c1c(C)ncnc1N1CCOc2c(C)cc(-c3cnc4sc(N)nc4c3)cc2C1 [Compound 125, 1-{4-[7-(2-amino[1,3]thiazolo[5,4-b]pyridin-6-yl)-9-methyl-2,3-dihydro-1,4-benzoxazepin-4(5H)-yl]-6-methylpyrimidin-5-yl}ethanone]
- IC50: ≤ 100 nM

Compound: Cc1cc(-c2cnc(Cl)c(NS(C)(=O)=O)c2)cc2c1OCCN(c1nc(C(=O)NCCN(C)C)nc(C)c1C(C)C)C2 [Compound 43, 4-[7-(6-chloro-5-[(methylsulfonyl)amino]pyridin-3-yl}-9-methyl-2,3-dihydro-1,4-benzoxazepin-4(5H)-yl]-N-[2-(dimethylamino)ethyl]-6-methyl-5-(1-methylethyl)pyrimidine-2-carboxamide]
- IC50: ≤ 100 nM

Compound: C#Cc1c(C)nc(N)nc1N1CCOc2c(C)cc(-c3cnc4sc(N)nc4c3)cc2C1 [Compound 145, 6-[4-(2-amino-5-ethynyl-6-methylpyrimidin-4-yl)-9-methyl-2,3,4,5-tetrahydro-1,4-benzoxazepin-7-yl][1,3]thiazolo[5,4-b]pyridin-2-amine]
- IC50: ≤ 100 nM

Compound: Cc1cc(-c2cnc3sc(N)nc3c2)cc2c1OCCN(c1nc(N)nc(C)c1CC1CC1)C2 [Compound 46, 6-{4-[2-amino-5-(cyclopropylmethyl)-6-methylpyrimidin-4-yl]-9-methyl-2,3,4,5-tetrahydro-1,4-benzoxazepin-7-yl}[1,3]thiazolo[5,4-b]pyridin-2-amine]
- IC50: ≤ 100 nM

Compound: Cc1nc(C)c(C(C)C)c(N2CCOc3c(C)cc(-c4nnc(N)s4)cc3C2)n1 [Compound 172, 5-{4-[2,6-dimethyl-5-(1-methylethyl)pyrimidin-4-yl]-9-methyl-2,3,4,5-tetrahydro-1,4-benzoxazepin-7-yl}-1,3,4-thiadiazol-2-amine]
- IC50: ≤ 100 nM

Compound: C=C(C)c1c(C)ncnc1N1CCOc2c(C)cc(-c3cnc4sc(N)nc4c3)cc2C1 [Compound 124, 6-{9-methyl-4-[6-methyl-5-(1-methylethenyl)pyrimidin-4-yl]-2,3,4,5-tetrahydro-1,4-benzoxazepin-7-yl}[1,3]thiazolo[5,4-b]pyridin-2-amine]
- IC50: ≤ 100 nM

Compound: Cc1ncc(C)c(N2CCOc3c(C)cc(-c4nnc(N)s4)cc3C2)n1 [Compound 174, 5-[4-(2,5-dimethylpyrimidin-4-yl)-9-methyl-2,3,4,5-tetrahydro-1,4-benzoxazepin-7-yl]-1,3,4-thiadiazol-2-amine]
- IC50: ≤ 100 nM

Compound: Cc1cc(-c2cnc3sc(N)nc3c2)cc2c1OCCN(c1ncnc3c1CC[C@H](C)C3)C2 [Compound 30, 6-{9-methyl-4-[(7S)-7-methyl-5,6,7,8-tetrahydroquinazolin-4-yl]-2,3,4,5-tetrahydro-1,4-benzoxazepin-7-yl}[1,3]thiazolo[5,4-b]pyridin-2-amine]
- IC50: ≤ 100 nM

Compound: CCc1nc(CN(C)C)nc(N2CCOc3c(C)cc(-c4cnc5sc(N)nc5c4)cc3C2)c1CC [Compound 85, 6-(4-{2-[(dimethylamino)methyl]-5,6-diethylpyrimidin-4-yl}-9-methyl-2,3,4,5-tetrahydro-1,4-benzoxazepin-7-yl)[1,3]thiazolo[5,4-b]pyridin-2-amine]
- IC50: ≤ 100 nM

Compound: Cc1cc(-c2cnc3sc(N)nc3c2)cc2c1OCCN(c1nccc(N)n1)C2 [Compound 25, 6-[4-(4-aminopyrimidin-2-yl)-9-methyl-2,3,4,5-tetrahydro-1,4-benzoxazepin-7-yl][1,3]thiazolo[5,4-b]pyridin-2-amine]
- IC50: 100 to 500 nM

Compound: Cc1cc(-c2cnc3sc(N)nc3c2)cc2c1OCCN(c1nc(N)ncc1C(C)C)C2 [Compound 11, 6-{4-[2-amino-5-(1-methylethyl)pyrimidin-4-yl]-9-methyl-2,3,4,5-tetrahydro-1,4-benzoxazepin-7-yl}[1,3]thiazolo[5,4-b]pyridin-2-amine]
- IC50: ≤ 100 nM

Compound: COCc1nc(C)c(C(C)C)c(N2CCOc3c(C)cc(-c4cnc5sc(N)nc5c4)cc3C2)n1 [Compound 93, 6-(9-methyl-4-{6-methyl-5-(1-methylethyl)-2-[(methyloxy)methyl]pyrimidin-4-yl}-2,3,4,5-tetrahydro-1,4-benzoxazepin-7-yl)[1,3]thiazolo[5,4-b]pyridin-2-amine]
- IC50: ≤ 100 nM

Compound: Cc1cc(-c2ccnc(F)c2)cc2c1OCCN(c1nc(N)nc(C)c1C(C)C)C2 [Compound 83, 4-[7-(2-fluoropyridin-4-yl)-9-methyl-2,3-dihydro-1,4-benzoxazepin-4(5H)-yl]-6-methyl-5-(1-methylethyl)pyrimidin-2-amine]
- IC50: 100 to 500 nM

Compound: Cc1nc2c(c(N3CCOc4c(C)cc(-c5cnc6sc(N)nc6c5)cc4C3)n1)CC(C)(C)CC2 [Compound 20, 6-[9-methyl-4-(2,6,6-trimethyl-5,6,7,8-tetrahydroquinazolin-4-yl)-2,3,4,5-tetrahydro-1,4-benzoxazepin-7-yl][1,3]thiazolo[5,4-b]pyridin-2-amine]
- IC50: ≤ 100 nM

Compound: Cc1cc(-c2cnc(Cl)c(NS(C)(=O)=O)c2)cc2c1OCCN(c1nc(C(N)=O)nc(C)c1C(C)C)C2 [Compound 44, 4-[7-{6-chloro-5-[(methylsulfonyl)amino]pyridin-3-yl}-9-methyl-2,3-dihydro-1,4-benzoxazepin-4(5H)-yl]-6-methyl-5-(1-methylethyl)pyrimidine-2-carboxamide]
- IC50: ≤ 100 nM

Compound: Cc1nc(C)c(C(C)C)c(N2CCOc3c(C)cc(-c4cnc5sc(N)nc5c4)cc3C2)n1 [Compound 104, 6-{4-[2,6-dimethyl-5-(1-methylethyl)pyrimidin-4-yl]-9-methyl-2,3,4,5-tetrahydro-1,4-benzoxazepin-7-yl}[1,3]thiazolo[5,4-b]pyridin-2-amine]
- IC50: ≤ 100 nM

Compound: Cc1nc2ccc(-c3cc(C)c4c(c3)CN(c3ncnc5ccc(I)cc35)CCO4)cc2[nH]1 [Compound 47, 4-(6-iodoquinazolin-4-yl)-9-methyl-7-(2-methyl-1H-benzimidazol-6-yl)-2,3,4,5-tetrahydro-1,4-benzoxazepine]
- IC50: 100 to 500 nM

Compound: Cc1cc(-c2nnc(N)s2)cc2c1OCCN(c1ncnc(C)c1C)C2 [Compound 176, 5-[4-(5,6-dimethylpyrimidin-4-yl)-9-methyl-2,3,4,5-tetrahydro-1,4-benzoxazepin-7-yl]-1,3,4-thiadiazol-2-amine]
- IC50: ≤ 100 nM

Compound: C=Cc1c(C)nc(N)nc1N1CCOc2c(C)cc(-c3nnc(N)s3)cc2C1 [Compound 181, 4-[7-(5-amino-1,3,4-thiadiazol-2-yl)-9-methyl-2,3-dihydro-1,4-benzoxazepin-4(5H)-yl]-5-ethenyl-6-methylpyrimidin-2-amine]
- IC50: ≤ 100 nM

Compound: Cc1cc(-c2cnc3sc(N)nc3c2)cc2c1OCCN(c1ncnc(Cl)c1C(C)C)C2 [Compound 108, 6-{4-[6-chloro-5-(1-methylethyl)pyrimidin-4-yl]-9-methyl-2,3,4,5-tetrahydro-1,4-benzoxazepin-7-yl}[1,3]thiazolo[5,4-b]pyridin-2-amine]
- IC50: ≤ 100 nM

Compound: Cc1nc2ccc(-c3cc(C)c4c(c3)CN(c3nc(N)nc(C)c3C(C)C)CCO4)cc2[nH]1 [Compound 2, 4-methyl-5-(1-methylethyl)-6-[9-methyl-7-(2-methyl-1H-benzimidazol-6-yl)-2,3-dihydro-1,4-benzoxazepin-4(5H)-yl]pyrimidin-2-amine]
- IC50: ≤ 100 nM

Compound: Cc1cc(-c2cnc3sc(N)nc3c2)cc2c1OCCN(c1nc([C@@H]3C[C@@H](F)CN3)nc(C)c1C(C)C)C2 [Compound 151, 6-(4-{2-[(2S,4R)-4-fluoropyrrolidin-2-yl]-6-methyl-5-(1-methylethyl)pyrimidin-4-yl}-9-methyl-2,3,4,5-tetrahydro-1,4-benzoazepin-7-yl)[1,3]thiazolo[5,4-b]pyridin-2-amine]
- IC50: ≤ 100 nM

Compound: Cc1cc(-c2ccn[nH]2)cc2c1OCCN(c1nc(N)nc(C)c1C(C)C)C2 [Compound 72, 4-methyl-5-(1-methylethyl)-6-[9-methyl-7-(1H-pyrazol-5-yl)-2,3-dihydro-1,4-benzoxazepin-4(5H)-yl]pyrimidin-2-amine]
- IC50: 100 to 500 nM

Compound: COc1cc(-c2cnc3sc(N)nc3c2)cc2c1OCCN(c1nc(CN(C)C)nc(C)c1C(C)C)C2 [Compound 157, 6-[4-{2-[(dimethylamino)methyl]-6-methyl-5-(1-methylethyl)pyrimidin-4-yl}-9-(methyloxy)-2,3,4,5-tetrahydro-1,4-benzoxazepin-7-yl][1,3]thiazolo[5,4-b]pyridin-2-amine]
- IC50: 100 to 500 nM

Compound: Cc1cc(-c2cnc3sc(N)nc3c2)cc2c1OCCN(c1nc(C3CC3)nc(C)c1C(C)C)C2 [Compound 150, 6-{4-[2-cyclopropyl-6-methyl-5-(1-methylethyl)pyrimidin-4-yl]-9-methyl-2,3,4,5-tetrahydro-1,4-benzoxazepin-7-yl}[1,3]thiazolo[5,4-b]pyridin-2-amine]
- IC50: ≤ 100 nM
